From publication PMC12430278, “A Simple and Reliable Method for the Determination of Isorhapontigenin in Murine Biological Matrices: Application in a Tissue Distribution Study” (Molecules, 2025)

Assay: Biodistribution study in mice following oral administration
Type: in vivo, C57BL/6 mice
Experimental: Following oral administration of ISO at a dose of 200 µmol/kg (equivalent to 51.7 mg/kg), three to four mice (n = 3 or 4) were euthanized at each predetermined time point (5, 10, 20, 40, 60, and 80 min), and biological samples were collected. ISO concentrations were quantified using our validated HPLC-UV method. Exposure levels (AUC) in plasma and other individual biological matrices were calculated based on the mean concentrations at each time point.
Specific pathogen-free C57BL/6 mice (male; 6–8 weeks old; weight: 18–21 g) were purchased through Shenzhen Glorybay Biotech Co. (Shenzhen, China). The animals had ad libitum access to food and water prior to dosing. ISO was administered as an aqueous suspension (vehicle: 0.3% sodium carboxymethylcellulose with 0.2% L-ascorbic acid; ISO concentration: 5 mg/mL) via oral gavage at a dose of 200 µmol/kg (equivalent to 51.7 mg/kg, dosing volume: 10.34 mL/kg). At each predetermined time point (5, 10, 20, 40, 60 and 80 min) three to four mice (n = 3 or 4) were euthanized through cervical dislocation. Blood samples were collected into heparinized centrifuge tubes and centrifuged to obtain plasma. Following blood collection, the mice were dissected, and major organs/tissues—including the brain, abdominal fat, heart, small intestine, large intestine, kidney, liver, lung, abdominal muscle, spleen, and stomach—were harvested. The organs and tissues were cut into small pieces and rinsed with isotonic saline before being blotted dry. All collected biological samples were placed on dry ice. At the end of the in vivo study, all samples were stored at –80 °C in a deep freezer until HPLC analysis.
Non-compartmental pharmacokinetic analysis was performed using WinNonlin Standard Version 1.0 (Scientific Consulting Inc., Apex, NC, USA). Plasma and tissue exposure, expressed as the area under the concentration–time curve (AUC), was calculated using the mean values of the individual mice.

COc1cc(/C=C/c2cc(O)cc(O)c2)ccc1O [ISO, trans-3,5,4′-trihydroxy-3′-methoxystilbene]
Time at which mean concentrations in plasma and multiple tissues peak (oral suspension, 200 µmol/kg (51.7 mg/kg)): 10 min | Exposure (AUC) ranking across plasma and tissues (oral, 200 µmol/kg (51.7 mg/kg), AUC from mean concentrations, 5-80 min): stomach > small intestine > liver > large intestine > plasma > kidney > heart > spleen > lung > muscle | Penetration into brain and fat (oral, 200 µmol/kg, brain and fat samples, quantifiable levels printed as ≥75 ng/mL): only a few reached quantifiable levels | Detectability of ISO in the kidney, liver, and heart over time (oral, 200 µmol/kg, kidney, liver, heart): undetectable in some mice as early as 20 min | Detectability of ISO in the lung and muscle over time (oral, 200 µmol/kg, lung, muscle): detectable in the lung and muscle mainly between 10 and 20 min | Quantifiability of ISO in plasma over time (oral, 200 µmol/kg, plasma): unquantifiable in one out of four mice by 40 min
